Measurements: US20240101572A1, “DIHYDROOXADIAZINONE COMPOUND AND PHARMACEUTICAL USE THEREOF” (Japan Tobacco Inc., priority 2022, published 2024)
pIC50: −log10 of the molar value. Like-named read-outs stand apart in the source and are kept apart here.

What was measured:
full-length human PLD1 = full-length human PLD1 (Homo sapiens (Human), UniProt Q13393); assay: Evaluation of human PLD1 enzyme inhibitory activity (Amplex Red / choline oxidase fluorescence); assay type: biochemical
Procedure, shortened: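 N-terminally FLAG-tagged full-length human PLD1 (1-1036), expressed in Expi293F and FLAG-purified, incubated with compound (5% DMSO final) and 1,2-diheptanoyl-sn-glycero-3-phosphocholine for 60 min at room temperature in HEPES pH 7.5 buffer. Released choline detected by Amplex Red/choline oxidase/HRP fluorescence.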

full-length human PLD2 = full-length human PLD2 (Homo sapiens (Human), UniProt O14939); assay: Evaluation of human PLD2 enzyme inhibitory activity (Amplex Red / choline oxidase fluorescence); assay type: biochemical
Chain of full-length human PLD2 (O14939 whole entry): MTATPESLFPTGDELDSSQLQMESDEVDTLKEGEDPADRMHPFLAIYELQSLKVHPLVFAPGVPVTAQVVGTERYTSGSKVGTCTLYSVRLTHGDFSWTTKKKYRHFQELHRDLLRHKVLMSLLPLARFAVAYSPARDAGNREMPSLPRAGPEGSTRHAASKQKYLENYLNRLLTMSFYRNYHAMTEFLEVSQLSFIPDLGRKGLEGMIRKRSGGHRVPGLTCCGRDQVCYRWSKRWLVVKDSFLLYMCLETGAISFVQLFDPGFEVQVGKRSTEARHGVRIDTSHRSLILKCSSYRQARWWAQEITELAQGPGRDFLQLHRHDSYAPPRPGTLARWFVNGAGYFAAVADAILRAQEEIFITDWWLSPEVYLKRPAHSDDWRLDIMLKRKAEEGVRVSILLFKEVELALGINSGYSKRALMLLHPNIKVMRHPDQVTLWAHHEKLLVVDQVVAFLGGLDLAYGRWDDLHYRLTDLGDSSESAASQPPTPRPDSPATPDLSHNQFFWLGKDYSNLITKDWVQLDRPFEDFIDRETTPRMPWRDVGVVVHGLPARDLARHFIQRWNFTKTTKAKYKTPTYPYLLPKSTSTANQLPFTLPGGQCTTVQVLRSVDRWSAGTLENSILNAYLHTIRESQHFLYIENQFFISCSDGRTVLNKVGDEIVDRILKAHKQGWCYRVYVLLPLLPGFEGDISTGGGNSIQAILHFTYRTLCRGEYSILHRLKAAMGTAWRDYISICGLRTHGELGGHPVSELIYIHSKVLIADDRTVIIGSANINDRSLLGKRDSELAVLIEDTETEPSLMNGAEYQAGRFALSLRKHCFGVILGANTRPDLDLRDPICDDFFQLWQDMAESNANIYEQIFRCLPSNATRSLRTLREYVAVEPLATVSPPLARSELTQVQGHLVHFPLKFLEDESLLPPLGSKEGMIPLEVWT
Procedure, shortened: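 Enzyme was N-terminal FLAG-tagged full-length human PLD2 (1-933), expressed in Expi293F cells and anti-FLAG purified. Compound (5% DMSO final) was incubated with enzyme (6 nmol/L solution) and 1,2-diheptanoyl-PC (6 mmol/L solution) in HEPES pH 7.5, KCl, EGTA, MgCl2, NP-40, BSA buffer for 60 min at room temperature. Choline was detected with Amplex Red/choline oxidase/HRP.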

[1] = full-length human PLD1 enzyme, read-out: PLD1 IC50
[2] = full-length human PLD2 enzyme, read-out: PLD2 IC50

Chain of full-length human PLD1 (Q13393 other isoform, or with tags, fused parts or gaps): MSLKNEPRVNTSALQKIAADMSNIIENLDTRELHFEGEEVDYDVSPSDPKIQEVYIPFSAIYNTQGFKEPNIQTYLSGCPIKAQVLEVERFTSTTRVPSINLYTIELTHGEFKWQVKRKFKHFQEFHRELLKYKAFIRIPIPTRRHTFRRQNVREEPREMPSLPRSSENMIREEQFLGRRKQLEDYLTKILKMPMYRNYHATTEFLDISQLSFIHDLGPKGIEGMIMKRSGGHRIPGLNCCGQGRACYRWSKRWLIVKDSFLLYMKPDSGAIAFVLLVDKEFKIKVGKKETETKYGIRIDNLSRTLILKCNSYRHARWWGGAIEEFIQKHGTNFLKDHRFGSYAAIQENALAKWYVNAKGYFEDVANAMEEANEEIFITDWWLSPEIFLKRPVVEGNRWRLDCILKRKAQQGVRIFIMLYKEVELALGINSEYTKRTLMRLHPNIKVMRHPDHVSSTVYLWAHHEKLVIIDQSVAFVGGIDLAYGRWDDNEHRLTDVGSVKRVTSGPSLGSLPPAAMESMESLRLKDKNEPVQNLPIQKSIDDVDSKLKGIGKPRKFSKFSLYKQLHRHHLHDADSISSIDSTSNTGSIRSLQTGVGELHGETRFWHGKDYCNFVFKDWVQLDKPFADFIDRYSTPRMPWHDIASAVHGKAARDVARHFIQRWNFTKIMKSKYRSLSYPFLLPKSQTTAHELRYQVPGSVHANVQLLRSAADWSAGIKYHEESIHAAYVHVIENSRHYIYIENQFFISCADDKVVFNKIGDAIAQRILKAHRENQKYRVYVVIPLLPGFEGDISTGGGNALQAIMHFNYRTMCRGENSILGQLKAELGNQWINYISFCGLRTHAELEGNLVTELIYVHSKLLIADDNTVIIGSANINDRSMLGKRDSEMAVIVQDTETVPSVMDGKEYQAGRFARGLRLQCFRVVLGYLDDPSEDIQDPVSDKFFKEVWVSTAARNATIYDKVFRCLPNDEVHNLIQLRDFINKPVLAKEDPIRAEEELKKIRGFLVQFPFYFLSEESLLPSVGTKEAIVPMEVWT

Compound	pIC50 (full-length human PLD1; [1])	pIC50 (full-length human PLD2; [2])	pIC50 (full-length human PLD1; column 1 of continuation tables 2-12 to 2-14, read-out: human PLD1 enzyme inhibitory activity IC50)	pIC50 (full-length human PLD2; column 2 of continuation tables 2-12 to 2-14, read-out: human PLD2 enzyme inhibitory activity IC50)
CNC(=O)C(=O)N[C@@H](C)C[C@H]1CC[C@]2(CC1)OC(=O)NN=C2c1ccc(S(C)(=O)=O)cc1Br [Example 33]	7.60	> 8.00	–	–
Cc1cc(F)ccc1C1=NNC(=O)O[C@]12CC[C@@H](C[C@H](C)NC(=O)N1CCCC1)CC2 [Example 136]	6.81	6.77	–	–
CNC(=O)C(=O)N[C@@H](C)C[C@H]1CC[C@]2(CC1)OC(=O)NN=C2c1ccnn1C [Example 68]	5.69	5.33	–	–
C[C@@H](C[C@H]1CC[C@]2(CC1)OC(=O)NN=C2c1cc(OC(F)(F)F)ccc1Br)NC(=O)C(=O)NC1CC1 [Example 295]	> 8.00	> 8.00	–	–
C[C@@H](C[C@H]1CC[C@]2(CC1)OC(=O)NN=C2c1cccc2c1OCC2)NC(=O)c1cc(Cl)no1 [Example 108]	7.60	7.42	–	–
CNC(=O)C(=O)N[C@@H](C)C[C@]1(C#N)CC[C@@]2(CC1)OC(=O)NN=C2c1ccc(OC(F)F)cc1Br [Example 2-067]	7.82	> 8.00	–	–
CNC(=O)C(=O)N[C@@H](C)C[C@]1(O)CC[C@]2(CC1)OC(=O)NN=C2c1ccc(F)cc1Br [Example 319]	5.68	6.13	–	–
CNC(=O)C(=O)N[C@@H](C)C[C@H]1CC[C@]2(CC1)OC(=O)NN=C2c1cccnc1C [Example 102]	6.54	6.18	–	–
CNC(=O)C(=O)N[C@@H](C)C[C@H]1CC[C@]2(CC1)OC(=O)NN=C2c1cc(C(=O)OC)ccc1Br [Example 2-032]	7.96	> 8.00	–	–
C[C@@H](C[C@H]1CC[C@]2(CC1)OC(=O)NN=C2c1ccc(F)cc1Br)NC(=O)C1CCC(=O)N1 (mixture of isomers) [Example 18]	6.07	6.80	–	–
Cc1cc(C(=O)N[C@@H](C)C[C@H]2CC[C@]3(CC2)OC(=O)NN=C3c2cc(OC(F)F)ccc2Br)[nH]n1 [Example 214]	> 8.00	> 8.00	–	–
C[C@@H](CN1CCC2(CC1)OC(=O)NN=C2c1ccc(F)cc1Br)NC(=O)c1cnn(C(F)(F)F)c1 [Example 255]	7.49	7.85	–	–
Cc1cc(N2CCOCC2)ccc1C1=NNC(=O)O[C@]12CC[C@@H](C[C@H](C)NC(=O)N1CCOCC1)CC2 [Example 200]	6.99	7.09	–	–
C[C@@H](C[C@H]1CC[C@]2(CC1)OC(=O)NN=C2c1ccc(F)cc1)NC(=O)c1cc2ccccc2o1 [Example 7]	7.52	7.36	–	–
Cc1cccnc1C1=NNC(=O)O[C@]12CC[C@@H](C[C@H](C)NC(=O)c1cc(Cl)no1)CC2 [Example 148]	7.70	7.74	–	–
C[C@@H](C[C@H]1CC[C@]2(CC1)OC(=O)NN=C2c1ccc(C#N)cc1Br)NC(=O)N1Cc2ccccc2C1 [Example 109]	7.92	> 8.00	–	–
CNC(=O)C(=O)N[C@@H](C)C[C@]1(F)CC[C@@]2(CC1)OC(=O)NN=C2c1cc(C#N)ccc1Br [Example 310]	7.85	> 8.00	–	–
CNC(=O)C(=O)N[C@@H](C)C[C@H]1CC[C@]2(CC1)OC(=O)NN=C2c1ccc(C#N)cc1Cl [Example 175]	7.68	7.82	–	–
COC(=O)/C=C/C(=O)N[C@@H](C)CN1CCC2(CC1)OC(=O)NN=C2c1cc(C#N)ccc1Br [Example 2-024]	7.34	7.55	–	–

Compound	pIC50 (full-length human PLD1; [1])	pIC50 (full-length human PLD2; [2])	pIC50 (full-length human PLD1; column 1 of continuation tables 2-12 to 2-14, read-out: human PLD1 enzyme inhibitory activity IC50)	pIC50 (full-length human PLD2; column 2 of continuation tables 2-12 to 2-14, read-out: human PLD2 enzyme inhibitory activity IC50)
CNC(=O)C(=O)N[C@@H](C)C[C@H]1CC[C@]2(CC1)OC(=O)NN=C2c1ccc(F)cc1Br [Example 14]	8.00	> 8.00	–	–
CNC(=O)C(=O)N[C@@H](C)C[C@H]1CC[C@]2(CC1)OC(=O)NN=C2c1cnc(O)cc1C [Example 162]	6.49	6.27	–	–
CSc1ccc(C2=NNC(=O)OC23CCN(C[C@H](C)NC(=O)c2cc4cc(F)ccc4o2)CC3)c(Cl)c1 [Example 115]	7.82	> 8.00	–	–
CNC(=O)C(=O)N[C@@H](C)C[C@H]1CC[C@]2(CC1)OC(=O)NN=C2c1ccc(F)cc1C1CC1 [Example 64]	7.74	> 8.00	–	–
CNC(=O)C(=O)N[C@@H](C)C[C@H]1CC[C@]2(CC1)OC(=O)NN=C2c1cc(C(=O)NC(C)(C)C)ccc1Br [Example 299]	7.60	> 8.00	–	–
C[C@@H](CN1CCC2(CC1)OC(=O)NN=C2c1cc(C#N)ccc1Br)NC(=O)c1cn(C)cn1 [Example 2-054]	7.43	> 8.00	–	–
C[C@@H](C[C@H]1CC[C@]2(CC1)OC(=O)NN=C2c1ccc(C#N)cc1Br)NC(=O)c1cc(C2CC2)n[nH]1 [Example 2-072]	7.85	7.62	–	–
CNC(=O)C(=O)N[C@@H](C)C[C@H]1CC[C@]2(CC1)OC(=O)NN=C2c1cc(OC(F)F)ccc1C [Example 194]	> 8.00	> 8.00	–	–
Cc1cc(C(=O)N[C@@H](C)CN2CCC3(CC2)OC(=O)NN=C3c2ccc(Cl)cc2C)[nH]n1 [Example 217]	7.77	> 8.00	–	–
C[C@@H](C[C@H]1CC[C@]2(CC1)OC(=O)NN=C2c1cccc(OC(F)F)c1Br)NC(=O)C(=O)NC1CC1 [Example 308]	7.82	> 8.00	–	–
C[C@@H](CN1CCC2(CC1)OC(=O)NN=C2c1ccc(F)cc1Br)NC(=O)N1CCC2(CC2)C1 [Example 284]	7.21	7.40	–	–
Cc1cc(C(=O)N[C@@H](C)C[C@H]2CC[C@]3(CC2)OC(=O)NN=C3c2cnc(N3CCC(F)(F)C3)cc2C)[nH]n1 [Example 238]	7.92	> 8.00	–	–
C[C@@H](C[C@H]1CC[C@]2(CC1)OC(=O)NN=C2c1ccc(S(C)(=O)=O)cc1Br)NC(=O)c1cc(Cl)no1 [Example 48]	7.85	> 8.00	–	–
C[C@@H](C[C@H]1CC[C@]2(CC1)OC(=O)NN=C2c1ccc(OCC(C)(C)O)cc1Br)NC(=O)c1cc(Cl)no1 [Example 131]	8.00	> 8.00	–	–
Cc1cc(C(=O)N[C@@H](C)CN2CCC3(CC2)OC(=O)NN=C3c2cc(Br)c(F)cc2Cl)[nH]n1 [Example 2-016]	7.72	> 8.00	–	–
CNC(=O)C(=O)N[C@@H](C)CC1CCC2(CC1)OC(=O)NN=C2c1ccncc1C (mixture of isomers) [Example 125]	7.40	7.24	–	–
CNC(=O)C(=O)N[C@@H](C)CC1CC[C@]2(C[C@@H]1F)OC(=O)NN=C2c1ccc(F)cc1Br (stereo partly shown) [Example 285]	> 8.00	> 8.00	–	–
[2H]C([2H])([2H])NC(=O)C(=O)N[C@@H](C)C[C@]1(OC)CC[C@@]2(CC1)OC(=O)NN=C2c1cccc(C(F)(F)F)c1Br [Example 2-129]	–	–	7.60	> 8.00
CNC(=O)C(=O)N[C@@H](C)C[C@H]1CC[C@]2(CC1)OC(=O)NN=C2c1cc(OC)c(F)cc1Br [Example 2-050]	7.92	> 8.00	–	–
